Values quoted from earlier work as cited in patent US20260069581A1, “METHODS AND COMPOSITIONS FOR CANCER THERAPY” (OHIO STATE INNOVATION FOUNDATION, priority 2020, published 2026).

How the values were obtained:
Rad51 = settings: Ref. 33; cited from earlier work
[1] = test system: cell lines derived from T-cell lymphomas or leukemias; settings: Ref. 25, cited from earlier work
tubulin acetylation = settings: concentration as high as 50 μM, Ref. 25; cited from earlier work
AML = settings: low micromolar doses, Ref. 25; cited from earlier work
[2] = test system: prostate cancer and lung adenocarcinoma cells; settings: Ref. 32; cited from earlier work

With `CN(C)Cc1c(C(=O)NCCOc2ccc(C(=O)NO)cc2)oc2ccccc12` [PCI-2481] as the compound, how does the Rad51 expression (Rad51) read?
Its Rad51 expression is “reduction of Rad51 expression”.

For `COc1ccc(Cn2ccc3ccc(C(=O)NO)cc32)cc1` [PCI-34051], which apoptosis [1] is on record?
Its apoptosis is “induces caspase-dependent apoptosis”.

And the GI50 ([1]; cell lines derived from T-cell lymphomas or leukemias)?
The GI50 was 2.4 to 4 µM.

What about the tubulin acetylation (tubulin acetylation) of the same compound?
Its tubulin acetylation is “did not induce significant tubulin acetylation”.

And the AML death (AML)?
Its AML death is “failed to induce AML death”.

Which “Rad50 and MRE11 protein levels” value [2] does the source give for `O=C(CCCCCCC(=O)Nc1ccccc1)NO` [vorinostat] here?
Its value is “downregulates”.
